Experimental data from patent US4789587A, “(1,3-dioxolan-2-yl-methyl)-1H-imidazoles as bactericidal and/or fungicidal agents” (IRE-Celltarg, S.A., priority 1986, dated 1988).
In brackets after ≈: the same amount, converted by molar mass. Like-named read-outs stand apart in the source and are kept apart here.

Key:
[1] = test system: Staphylococcus aureus ATCC 25923; assay: minimum inhibiting concentration, microtitration in liquid medium, S. aureus; type: cell-based
Method: (§1) The activity of the new derivatives according to the invention was tested in vitro by determining the minimum inhibiting concentration (MIC) of the molecules and their fungicidal (minimum fungicidal concentration MFC) or bactericidal (minimum bactericidal concentration MBC) activity. MFC and MBC are defined as the minimum dose which kills 99.9% of the organisms contained in the inoculum. Two species of yeasts pathogenic to man were used: Candida albicans ATCCe 10231 and Candida tropicalis ATCC 13803. Two species of bacteria were included in the screening: Staphylococcus aureus ATCC 25923 and Salmonella typhimurium LT2, strain Demerec. The MIC is determined after culturing overnight in a liquid medium, by the microtitration method in dishes containing 96 wells over a concentration range of 100 μM to 0.0008 μM. The inoculum contains 10^5 to 10^6 organisms/ml. The culture media consist on the one hand of RPMI to which 20% of foetal calf serum (inactivated for one hour at 56°) has been added in order to determine the fungistatic activity and Mueller-Hinton agar in order to determine the bacteriostatic power of the newly synthesized molecules on the other. The MFC and MBC for each of these molecules are obtained by subculturing a sample containing 10^3 organisms from each well giving negative results for the growth of the organisms, in a solid medium consisting of YM agar (yeasts) or Mueller-Hinton agar (bacteria) overnight at 37°.

[2] = test system: Candida albicans ATCCe 10231; assay: minimum inhibiting concentration, microtitration in liquid medium, C. albicans; type: cell-based; conditions: ATCCE10231, RPMI + 20% foetal calf serum, overnight, inoculum 10^5 to 10^6 organisms/ml
Method: as §1

[3] = test system: Candida tropicalis ATCC 13803; assay: minimum inhibiting concentration, microtitration in liquid medium, C. tropicalis; type: cell-based; conditions: ATCC13803, RPMI + 20% foetal calf serum, overnight, inoculum 10^5 to 10^6 organisms/ml
Method: as §1

[4] = test system: Leydig tumor cells from mice (I-10, ATCC No. CCL83); assay: in vitro synthesis of steroids: progesterone secretion by Leydig tumor cells induced by cAMP; type: cell-based; conditions: for Progesterone (1): dibutyryl-cAMP 1×10^-4 M, 3 hours incubation with compound, control 3546, basal 554; for progesterone secretion, % of cAMP-induced control at 0.94 µM: Mus musculus, Leydig, read-out: Progesterone (2) % enzyme activity relative to control
Excerpt: (§2) Ketoconazole and its derivatives reduce the plasma levels of testosterone by inhibiting certain enzymes involved in its biogenesis. Progesterone is a key intermediate in the biogenesis of steroid hormones as it leads especially to estradiol in the ovary and to testosterone in the testicles. The inhibiting power of ketoconazole and its derivatives on the enzyme chain for the biogenesis of steroid hormones may be assessed by measuring the conversion of cholesterol into progesterone. A method of determination which enables this property to be quantified is described below.
(§3) Leydig tumor cells from mice (I-10, ATCC No. CCL83) were grown in a HAM's F10 medium to which 15% of horse serum and 2.5% of foetal calf serum were added. These cells have the property of secreting progesterone and a product of reduction of the latter which is no longer metabolized, 20α-hydroxy-4-pregnen-3-one. This secretion of steroids is induced by the addition of cAMP in the form of its dibutyryl ester (N^6, O^2' -dibutyryladenosine 3', 5'-cyclic monophosphate sodium salt monohydrate (Sigma)). The cells are subcultured in 25 cm^2 falcon dishes and maintained under CO2 (10%). When these become confluent (±1 mg/ml proteins) the medium is replaced with fresh medium containing dibutyryl-cAMP (1×10^-4 M). After incubating for 1 hour with the cAMP, the ketoconazole or its derivatives are added (9.4×10^-7 M) to the culture medium. After incubating for a further period of 3 hours, the supernatants are collected and will be used for the analysis of steroids by HPLC. The cells are rinsed with PBS (phosphate buffered saline: NaCl 0.15M, KCl 2.7 mM, Na2 HPO4 -KH2 PO4 3 mM pH 7.4) and after treating with DOC (deoxycholic acid), the determination of proteins is carried out by the Lowry method.
(§4) For the determination of steroids, 2 ml of the culture medium are brought into contact with 5 ml of ether. The tubes are vortexed for 2 minutes. After freezing the aqueous phases in an isopropanol/solid carbon dioxide bath, the ether phase is collected and the ether is evaporated off under a stream of nitrogen at 30° C. The dry extract is then diluted in 150 μl of water and 150 μl of acetonitrile and centrifuged at 13,000 rpm for 10 minutes. 30 μl of the supernatant are injected into HPLC on a 4 mm diameter, 30 cm long μBondapack C18 column (WATERS). The mobile phase consists of 38% of water, 31% acetonitrile and 31% methanol. The flowrate is 2 ml/min and readings are taken at 245 nm.

[5] = test system: Leydig tumor cells from mice (I-10, ATCC No. CCL83); assay: in vitro synthesis of steroids: 20α-hydroxy-4-pregnen-3-one secretion by Leydig tumor cells induced by cAMP; type: cell-based; conditions: for 20α-OH-4-pregnen-3-one (1): dibutyryl-cAMP 1×10^-4 M, 3 hours incubation with compound, control 1744, basal 785; for activity at 0.94 µM: Mus musculus, Leydig, read-out: 20α-OH-4-pregnen-3-one (2) % enzyme activity relative to control
Excerpt: as §2, §3, §4

[6] = test system: Candida albicans ATCCe 10231; assay: minimum fungicidal concentration, subculture on YM agar, C. albicans; type: cell-based
Method: as §1

[7] = test system: Candida tropicalis ATCC 13803; assay: minimum fungicidal concentration, subculture on YM agar, C. tropicalis; type: cell-based
Method: as §1

[8] = test system: Staphylococcus aureus ATCC 25923; assay: minimum bactericidal concentration, subculture on Mueller-Hinton agar, S. aureus; type: cell-based
Method: as §1

[9] = test system: Salmonella typhimurium LT2, strain Demerec; assay: minimum inhibiting concentration, microtitration in liquid medium, S. typhimurium; type: cell-based; conditions: Salmonella enterica, read-out: MIC S. typhimurium
Method: as §1

[10] = resorption: plasma concentration in rats after gastric administration; type: in vivo; conditions: rat, po, 1000 umol/kg, 100 μmols/0.5 ml of DMSO per 100 g of body weight, Candida tropicalis inhibition zones vs ketoconazole standard curve, read-out: plasma concentration of the antifungal product
Method: 100 μmols/0.5 ml of DMSO per 100 g of body weight of either ketoconazole (reference product) or oleylketoconazole (compound No. 7) are administered to rats by the gastric route. The animals are sacrificed with CO2, 1 h after the administration. Blood is sampled by cardiac puncture and centrifuged for 15 minutes at 2000 rpm to obtain the plasma.
A series of dilutions of the plasma samples are prepared in a 0.9% NaCl solution, diluting twice each time. 10 μl are sampled from each dilution and deposited on Whatman paper discs. The discs are placed in Petri dishes containing 15 ml of casitone agar covered with a layer containing 3 ml of a less dense agar mixed with 0.1 ml of an overnight culture of Candida tropicalis. After incubating overnight the growth inhibition zones around the disks are measured and compared with a standard curve prepared with ketoconazole under the same conditions.

[11] = test system: Salmonella typhimurium LT2, strain Demerec; assay: minimum bactericidal concentration, subculture on Mueller-Hinton agar, S. typhimurium; type: cell-based; conditions: Salmonella enterica, minimum dose which kills 99.9% of the organisms (MBC), overnight at 37°, read-out: MFC S. typhimurium
Method: as §1, with “The MFC and MBC for each of these molecules are obtained by subculturing a sample containing 10^3 organisms from each well giving negative results for the growth of the organisms, in a solid medium consisting of YM agar (yeasts) or Mueller-Hinton agar (bacteria) overnight at 37°.” left out

[12] = ATCC25923, Mueller-Hinton, overnight, inoculum 10^5 to 10^6 organisms/ml, read-out: MIC S. aureus
[13] = 9.4×10^-7 M, relative to cells induced by cAMP in the absence of inhibitor
[14] = ATCCE10231, minimum dose which kills 99.9% of the organisms, YM agar, overnight at 37°, read-out: MFC C. albicans
[15] = ATCC13803, minimum dose which kills 99.9% of the organisms, YM agar, overnight at 37°, read-out: MFC C. tropicalis
[16] = ATCC25923, minimum dose which kills 99.9% of the organisms (MBC), overnight at 37°, read-out: MFC S. aureus
[17] = ATCC25923, read-out: MIC S. aureus
[18] = Mueller-Hinton, overnight, inoculum 10^5 to 10^6 organisms/ml

Row | SMILES | MIC [1, 12] [µM] | MIC [2] [µM] | MIC [3] [µM] | Progesterone (1) ([4]; 9.4×10^-7 M) | progesterone secretion, % of cAMP-induced control at 0.94 µM [4, 13] [%] | 20α-OH-4-pregnen-3-one (1) ([5]; 9.4×10^-7 M) | activity at 0.94 µM [5, 13] [%] | MFC [6, 14] [µM] | MFC [7, 15] [µM] | MBC [8, 16] [µM] | other results
1 | O=C(O)CCC(=O)NCC(=O)N1CCN(c2ccc(OCC3COC(Cn4ccnc4)(c4ccc(Cl)cc4Cl)O3)cc2)CC1 (stereo not drawn) [No. 5, Cis-4-[A]-1-(N-succinylglycyl)piperazine] | 50 (≈ 32.3 µg/mL) | 25 | 25 | – | – | – | – | – | – | – | –
2 | CC(N)C(=O)N1CCN(c2ccc(OCC3COC(Cn4ccnc4)(c4ccc(Cl)cc4Cl)O3)cc2)CC1 (stereo not drawn) [No. 2, Cis-4-[A]-1-(alanyl)piperazine] | – | 0.006 | 0.006 | 1939 ng of steroids/mg of cell prot | 55 | 1299 ng of steroids/mg of cell prot | 74 | – | – | – | –
3 | CC(=O)NCC(=O)N1CCN(c2ccc(OCC3COC(Cn4ccnc4)(c4ccc(Cl)cc4Cl)O3)cc2)CC1 (stereo not drawn) [No. 6, Cis-4-[A]-1-(N-acetylglycyl)piperazine] | – | 3.13 | 0.78 | – | – | – | – | 6.25 (≈ 3.68 µg/mL) | 12.5 (≈ 7.36 µg/mL) | – | –
4 | O=C(O)CCC(=O)N1CCN(c2ccc(OCC3COC(Cn4ccnc4)(c4ccc(Cl)cc4Cl)O3)cc2)CC1 (stereo not drawn) [No. 4, Cis-4-[A]-1(succinyl)piperazine] | 50.8 (≈ 29.9 µg/mL) | 19.8 | 15.2 | – | – | – | – | 25 (≈ 14.7 µg/mL) | 50 (≈ 29.5 µg/mL) | > 100 | –
5 | CC(C)CC(N)C(=O)N1CCN(c2ccc(OCC3COC(Cn4ccnc4)(c4ccc(Cl)cc4Cl)O3)cc2)CC1 (stereo not drawn) [No. 9, Cis-4-[A]-1-(leucyl)piperazine] | – | – | – | 2231 ng of steroids/mg of cell prot | 63 | 1725 ng of steroids/mg of cell prot | 99 | – | – | – | –
6 | Clc1ccc(COC(Cn2ccnc2)c2ccc(Cl)cc2Cl)c(Cl)c1 (stereo not shown) [Miconazole, reference compound] | – | – | – | – | – | – | – | – | – | – | MIC [1, 17]: 1.56 µM (≈ 0.649 µg/mL)
7 | NC(Cc1ccccc1)C(=O)N1CCN(c2ccc(OCC3COC(Cn4ccnc4)(c4ccc(Cl)cc4Cl)O3)cc2)CC1 (stereo not drawn) [No. 10, Cis-4-[A]-1-(phenylalanyl)piperazine] | – | – | – | 323 ng of steroids/mg of cell prot | 9 | 605 ng of steroids/mg of cell prot | 35 | – | – | – | –
8 | Clc1ccc(C2(Cn3ccnc3)OCC(COc3ccc(N4CCNCC4)cc3)O2)c(Cl)c1 (stereo not drawn) [Cis-1-[A]-piperazine, reference compound] | – | – | – | 2783 ng of steroids/mg of cell prot | – | 1461 ng of steroids/mg of cell prot | – | – | – | – | MIC [1, 17]: 3.65 µM (≈ 1.79 µg/mL); MFC ([6]; ATCCE10231, read-out: MFC C. albicans): 2.35 µM (≈ 1.15 µg/mL); MBC ([8]; ATCC25923, read-out: MFC S. aureus, minimum dose which kills 99.9% of the organisms (MBC), overnight at 37°): 25 µM (≈ 12.2 µg/mL); MIC [9]: > 100 µM; progesterone secretion, % of cAMP-induced control at 0.94 µM [4]: 78%; activity at 0.94 µM [5]: 84%; MFC ([7]; ATCC13803, read-out: MFC C. tropicalis): 1.58 µM (≈ 0.773 µg/mL)
9 | NCC(=O)NCC(=O)N1CCN(c2ccc(OCC3COC(Cn4ccnc4)(c4ccc(Cl)cc4Cl)O3)cc2)CC1 (stereo not drawn) [No. 3, Cis-4-[A]-1-(N-glycylglycyl)piperazine] | – | 0.48 | 0.48 | – | – | – | – | – | – | – | –
10 | CCCCCCCCC=CCCCCCCCC(=O)N1CCN(c2ccc(OCC3COC(Cn4ccnc4)(c4ccc(Cl)cc4Cl)O3)cc2)CC1 (stereo not shown) [No. 7] | > 100 | 10.2 | 8.78 | 2754 ng of steroids/mg of cell prot | 78 | 1497 ng of steroids/mg of cell prot | 86 | 125 (≈ 94.2 µg/mL) | 250 (≈ 188 µg/mL) | > 100 | concentration at 1 h [10]: 57.3 µM; MIC [9, 18]: > 100 µM
11 | CCCCCCCCC=CCCCCCCCC(=O)NCC(=O)N1CCN(c2ccc(OCC3COC(Cn4ccnc4)(c4ccc(Cl)cc4Cl)O3)cc2)CC1 (stereo not drawn) [No. 8, Cis-4-[A]-1-(N-oleylglycyl)piperazine] | – | 31.2 | 53.1 | – | – | – | – | 62.5 (≈ 50.7 µg/mL) | > 100 | – | –
12 | NCC(=O)N1CCN(c2ccc(OCC3COC(Cn4ccnc4)(c4ccc(Cl)cc4Cl)O3)cc2)CC1 (stereo not drawn) [No. 1, Cis-4-[A]-1-(glycyl)piperazine] | 12 (≈ 6.55 µg/mL) | 0.16 | 0.119 | – | – | – | – | 2.38 (≈ 1.3 µg/mL) | 1.3 (≈ 0.71 µg/mL) | 25 (≈ 13.7 µg/mL) | –
13 | CC(=O)N1CCN(c2ccc(OCC3COC(Cn4ccnc4)(c4ccc(Cl)cc4Cl)O3)cc2)CC1 (stereo not shown) [Ketoconazole, reference compound] | 20.4 (≈ 10.9 µg/mL) | 0.053 | 0.049 | 1878 ng of steroids/mg of cell prot | 53 | 1296 ng of steroids/mg of cell prot | 74 | 0.22 (≈ 0.117 µg/mL) | 4.88 (≈ 2.59 µg/mL) | 50 (≈ 26.6 µg/mL) | MIC [9, 18]: > 100 µM; MBC [11]: > 100 µM
